The values below come from patent US20110028401A1, “CRIPTO BLOCKING MOLECULES AND THERAPEUTIC USES THEREOF” (CONSIGLIO NAZIONALE DELLE RICERCHE, priority 2009, published 2011).

The assay deals with wild-type EBs. Briefly: Cardiomyogenesis (beating areas) in wild-type embryoid bodies. The format is cell-based, mouse. Here is the method:
Undifferentiated ESCs were cultured as previously described^55.
Given the neutralizing activity of the peptide, the authors then asked whether Cripto BP was able to block ALK-4/Smad2-dependent Cripto signalling in ESCs and thereby mimic the absence of cripto in an ESC differentiation assay. The authors first evaluated whether Cripto BP was able to prevent Cripto-induced Smad2 phosphorylation of serum starved 2 day-old cripto^−/− Embryoid Bodies (EBs), as assessed by Western blot analysis. Recombinant soluble Cripto protein stimulated Smad2 phosphorylation^35. This effect was not modified by the presence of increasing amounts of either Cripto DP or CP (2.5 μM and 25 μM) (FIG. 6a). […] The authors thus asked whether the neutralizing activity of Cripto BP on endogenous Cripto signalling was also able to block cardiomyogenesis in wild-type ESCs. To this end, 2 day-old wild-type EBs were treated with increasing amounts of either CP or Cripto BP, ranging from 5.0 to 25 μM, and the percentage of EBs containing beating areas was scored from days 8 to 12 of the differentiation (n=˜60 EBs/group; FIG. 6b). Given that the peptides were dissolved in DMSO, control untreated EBs were compared with DMSO treated EBs.

For the compound `C[S+]([O-])CCC(N)C(=O)N[C@@H](CSCc1ccccc1)C(=O)N[C@@H](CSCc1ccccc1)C(=O)N[C@@H](CCCCNC(=O)[C@H](CSCc1ccccc1)NC(=O)[C@H](CSCc1ccccc1)NC(=O)[C@@H](N)CC[S+](C)[O-])C(=O)N[C@@H](CCCCNC(=O)[C@H](CCCCNC(=O)[C@H](CSCc1ccccc1)NC(=O)[C@H](CSCc1ccccc1)NC(=O)[C@@H](N)CC[S+](C)[O-])NC(=O)[C@H](CSCc1ccccc1)NC(=O)[C@H](CSCc1ccccc1)NC(=O)[C@@H](N)CC[S+](C)[O-])C(=O)NCC(=O)O` (some centres unmarked) [Cripto BP], the “rhythmically contracting (beating) EBs” value (25 μM peptide, wild-type EBs, mean±SD) is on record as 3.7%±3.5. Moreover, the “effect on the percentage of beating EBs (cardiomyogenesis)” value (5.0 to 25 μM, scored days 8 to 12) is recorded as “dose-dependent inhibition of cardiomyogenesis”.
